{"source": "patent US6565897B2", "about": "“Extract of nerium species, pharmaceutical composition thereof and methods for preparation thereof” (Ozelle Pharmaceuticals, Inc., priority 1998, dated 2003)", "system": "Tumor Necrosis Factor (TNF)", "assay": "Tumor Necrosis Factor (TNF) production (immune stimulation)", "assay_type": "cell-based", "settings": "at a concentration of 50 mcg/mL", "from_the_text": "For example, the polysaccharide PS-I is shown to produce 256 Unit/mL of Tumor Necrosis Factor (TNF) at a concentration of 50 mcg/mL while a mixture of PS-II, PS-III and PS-IV is shown to produce 1000 Unit/mL of TNF at a concentration of 3 mcg/mL.", "data": [{"substance": "Poly α (1→4) D-Galacturonic Acid [PS-I]", "values": [{"measurement": "Tumor Necrosis Factor (TNF) produced", "value": 256, "unit": "Unit/mL"}]}]}
